According to patent US9593110B2, “Neprilysin inhibitors” (Theravence Biopharma R&D IP, LLC, priority 2014, dated 2017):

biological target: human NEP (Homo sapiens (Human), UniProt P08473); assay: In vitro enzyme inhibition assay at human NEP; conditions: pKi, recombinant human NEP, fluorogenic peptide substrate, 37° C.
Sequence (P08473 52-750): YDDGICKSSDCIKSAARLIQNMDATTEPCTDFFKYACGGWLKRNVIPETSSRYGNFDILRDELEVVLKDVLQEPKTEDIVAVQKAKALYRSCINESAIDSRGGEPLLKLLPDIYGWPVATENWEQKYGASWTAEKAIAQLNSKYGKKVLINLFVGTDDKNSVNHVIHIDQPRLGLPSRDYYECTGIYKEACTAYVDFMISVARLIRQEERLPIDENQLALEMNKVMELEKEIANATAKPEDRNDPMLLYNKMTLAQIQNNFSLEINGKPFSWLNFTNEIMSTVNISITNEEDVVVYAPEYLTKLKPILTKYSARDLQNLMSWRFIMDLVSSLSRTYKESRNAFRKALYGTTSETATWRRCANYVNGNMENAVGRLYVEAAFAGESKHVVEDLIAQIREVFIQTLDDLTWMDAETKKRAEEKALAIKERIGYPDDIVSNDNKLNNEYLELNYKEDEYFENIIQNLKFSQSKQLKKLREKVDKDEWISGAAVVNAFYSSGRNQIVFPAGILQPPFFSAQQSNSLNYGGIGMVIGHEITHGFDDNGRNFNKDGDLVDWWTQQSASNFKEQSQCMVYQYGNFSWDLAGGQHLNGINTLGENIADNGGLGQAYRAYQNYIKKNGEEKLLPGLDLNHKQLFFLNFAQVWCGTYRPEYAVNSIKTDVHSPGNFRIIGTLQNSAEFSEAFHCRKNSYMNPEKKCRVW

| Structure (SMILES) | Ki |
| --- | --- |
| CCc1cc(C(=O)N[C@H](Cc2ccc(-c3cc(Cl)ccc3F)cc2)C[C@@H](N)C(=O)O)on1 [Example 16-1, (2R,4R)-2-Amino-5-(5′-chloro-2′-fluorobiphenyl-4-yl)-4-[(3-ethylisoxazole-5-carbonyl)-amino]pentanoic acid] | 1.26 to 3.16 nM |
| CC(C)c1coc(C(=O)N[C@H](Cc2ccc(-c3cc(Cl)ccc3F)cc2)C[C@@H](N)C(=O)O)n1 [Example 15, (2R,4R)-2-Amino-5-(5′-chloro-2′-fluorobiphenyl-4-yl)-4-[(4-isopropyloxazole-2-carbonyl)amino]pentanoic Acid] | ≤ 1 nM |
| CC(C)c1coc(C(=O)N[C@H](Cc2ccc(-c3cc(Cl)ccc3F)cc2Cl)C[C@@H](N)C(=O)O)n1 [Example 17, (2R,4R)-2-Amino-5-(3,5′-dichloro-2′-fluorobiphenyl-4-yl)-4-[(4-isopropyloxazole-2-carbonyl)amino]pentanoic Acid] | ≤ 1 nM |
| COCc1cc(C(=O)N[C@H](Cc2ccc(-c3cc(Cl)ccc3F)cc2Cl)C[C@@H](N)C(=O)O)no1 [Example 18-7, (2R,4R)-2-Amino-5-(3,5′-dichloro-2′-fluorobiphenyl-4-yl)-4-[(5-methoxymethylisoxazole-3-carbonyl)amino]pentanoic acid] | 10 to 31.6 nM |
| Cc1nc(C(=O)N[C@H](Cc2ccc(-c3cc(Cl)ccc3F)cc2)C[C@@H](CN)C(=O)O)co1 [Example 21-5, (2S,4S)-2-Aminomethyl-5-(5′-chloro-2′-fluorobiphenyl-4-yl)-4-[(2-methyloxazole-4-carbonyl)amino]pentanoic acid] | 1.26 to 3.16 nM |
| CCOc1oc(C(=O)N[C@H](Cc2ccc(-c3cc(Cl)ccc3F)cc2)C[C@@H](NC(=O)OC)C(=O)O)nc1C [Example 30-8, (2R,4R)-5-(5′-Chloro-2′-fluorobiphenyl-4-yl)-4-[(5-ethoxy-4-methyl-oxazole-2-carbonyl)amino]-2-methoxycarbonylaminopentanoic acid] | 1.26 to 3.16 nM |
| N[C@@H](C[C@@H](Cc1ccc(-c2cc(Cl)ccc2F)cc1)NC(=O)c1cc(O)no1)C(=O)O [Example 16-27, (2S,4R)-2-Amino-5-(5′-chloro-2′-fluorobiphenyl-4-yl)-4-[(3-hydroxyisoxazole-5-carbonyl)amino]pentanoic acid] | 1.26 to 3.16 nM |
| N[C@H](C[C@@H](Cc1ccc(-c2cc(Cl)ccc2F)cc1)NC(=O)c1ccc(Cl)cn1)C(=O)O [Example 16-7, (2R,4R)-2-Amino-5-(5′-chloro-2′-fluorobiphenyl-4-yl)-4-[(5-chloropyridine-2-carbonyl)-amino]pentanoic acid] | 3.16 to 10 nM |
| Cc1cnc(C(=O)N[C@H](Cc2ccc(-c3cc(Cl)ccc3F)cc2)C[C@@H](N)C(=O)O)o1 [Example 16-3, (2R,4R)-2-Amino-5-(5′-chloro-2′-fluorobiphenyl-4-yl)-4-[(5-methyloxazole-2-carbonyl)-amino]pentanoic acid] | 1.26 to 3.16 nM |
| CCCc1nc(C(=O)N[C@H](Cc2ccc(-c3cc(Cl)ccc3F)cc2)C[C@@H](N)C(=O)O)co1 [Example 16-6, (2R,4R)-2-Amino-5-(5′-chloro-2′-fluorobiphenyl-4-yl)-4-[(2-propyloxazole-4-carbonyl)-amino]pentanoic acid] | 3.16 to 10 nM |
| CCOC[C@H](C[C@@H](Cc1ccc(-c2cc(Cl)ccc2F)cc1)NC(=O)c1coc(C2CC2)n1)C(=O)O [Example 7-8, (2S,4S)-5-(5′-Chloro-2′-fluorobiphenyl-4-yl)-4-[(2-cyclopropyloxazole-4-carbonyl)amino]-2-ethoxymethylpentanoic acid] | 1.26 to 3.16 nM |
| COC[C@H](C[C@@H](Cc1ccc(-c2cc(Cl)ccc2F)cc1)NC(=O)c1[nH]nc(C2CC2)c1F)C(=O)O [Example 2-3, (2S,4S)-5-(5′-Chloro-2′-fluorobiphenyl-4-yl)-4-[(5-cyclopropyl-4-fluoro-2H-pyrazole-3-carbonyl)amino]-2-methoxymethylpentanoic acid] | 1.26 to 3.16 nM |

Other lines, results leading:

| Ki | Structure (SMILES) |
| --- | --- |
| 3.16 to 10 nM | NCCCC(=O)NC[C@H](C[C@@H](Cc1ccc(-c2cc(Cl)ccc2F)cc1)NC(=O)c1cnn[nH]1)C(=O)O [Example 68, (2S,4S)-2-[(4-Aminobutyrylamino)methyl]-5-(5′-chloro-2′-fluorobiphenyl-4-yl)-4-[(3H-[1,2,3]triazole-4-carbonyl)amino]pentanoic acid] |
| ≤ 1 nM | COC[C@@H]1CCN1C[C@H](C[C@@H](Cc1ccc(-c2cc(Cl)ccc2F)cc1)NC(=O)c1c[nH]nn1)C(=O)O [Example 103d, (2S,4S)-5-(5′-Chloro-2′-fluorobiphenyl-4-yl)-2-((S)-2-methoxymethylazetidin-1-ylmethyl)-4-[(3H-[1,2,3]triazole-4-carbonyl)amino]pentanoic Acid] |
| 3.16 to 10 nM | Cc1cc(C(=O)NC(Cc2ccc(-c3cc(Cl)ccc3F)cc2)C[C@@H](CC#N)C(=O)O)sn1 (single isomer, unassigned) [Example 52-2] |
| ≤ 1 nM | O=C(N[C@H](Cc1ccc(-c2cc(Cl)ccc2F)cc1)C[C@@H](CN1CC(CO)(CO)C1)C(=O)O)c1cnn[nH]1 [Example 92b, (2S,4S)-2-(3,3-Bis-hydroxymethylazetidin-1-ylmethyl)-5-(5′-chloro-2′-fluorobiphenyl-4-yl)-4-[(3H-[1,2,3]triazole-4-carbonyl)amino]pentanoic Acid] |
| 3.16 to 10 nM | CC(C)c1coc(C(=O)N[C@H](Cc2ccc(-c3cc(Cl)ccc3F)cc2)C[C@@H](NC(=O)[C@H](N)C(C)C)C(=O)O)n1 [Example 38-1, (2R,4R)-2-((R)-2-Amino-3-methylbutyrylamino)-5-(5′-chloro-2′-fluorobiphenyl-4-yl)-4-[(4-isopropyloxazole-2-carbonyl)amino]pentanoic Acid] |
| ≤ 1 nM | N#CC1CN(C[C@H](C[C@@H](Cc2ccc(-c3cc(Cl)ccc3F)cc2)NC(=O)c2cnn[nH]2)C(=O)O)C1 [Example 88b, (2S,4S)-5-(5′-Chloro-2′-fluorobiphenyl-4-yl)-2-(3-cyanoazetidin-1-ylmethyl)-4-[(3H-[1,2,3]triazole-4-carbonyl)amino]pentanoic Acid] |
| ≤ 1 nM | COCCN(C)C[C@H](C[C@@H](Cc1ccc(-c2cc(Cl)ccc2F)cc1)NC(=O)c1cnn[nH]1)C(=O)O [Example 85a, (2S,4S)-5-(5′-Chloro-2′-fluorobiphenyl-4-yl)-2-{[(2-methoxyethyl)methylamino]methyl}-4-[(3H-[1,2,3]triazole-4-carbonyl)amino]pentanoic Acid] |
| ≤ 1 nM | CC1(C)CN(C[C@H](C[C@@H](Cc2ccc(-c3cc(Cl)ccc3F)cc2)NC(=O)c2cnn[nH]2)C(=O)O)C1 [Example 89b, (2S,4S)-5-(5′-Chloro-2′-fluorobiphenyl-4-yl)-2-(3,3-dimethylazetidin-1-ylmethyl)-4-[(3H-[1,2,3]triazole-4-carbonyl)amino]pentanoic Acid] |
| ≤ 1 nM | O=C(N[C@H](Cc1ccc(-c2cc(Cl)ccc2F)cc1)C[C@@H](CNCCCO)C(=O)O)c1cnn[nH]1 [Example 87b, (2S,4S)-5-(5′-Chloro-2′-fluorobiphenyl-4-yl)-2-[(3-hydroxypropylamino)methyl]-4-[(3H-[1,2,3]triazole-4-carbonyl)amino]pentanoic Acid] |

same assay, conditions: recombinant human NEP, fluorogenic peptide substrate, 37° C.

| Structure (SMILES) | pKi |
| --- | --- |
| CCOC[C@H](C[C@@H](Cc1ccc(-c2cccc(Cl)c2)cc1)NC(=O)c1c[nH]nn1)C(=O)O [Example 9-1, (2S,4S)-5-(3′-Chlorobiphenyl-4-yl)-2-ethoxymethyl-4-[(1H-[1,2,3]triazole-4-carbonyl)amino]pentanoic acid] | ≧9.0 |
| CCOC[C@H](C[C@@H](Cc1ccc(-c2cc(Cl)ccc2F)cc1)NC(=O)c1cc(C(C)=O)n[nH]1)C(=O)O [Example 7-3, (2S,4S)-4-[(5-Acetyl-2H-pyrazole-3-carbonyl)-amino]-5-(5′-chloro-2′-fluorobiphenyl-4-yl)-2-ethoxymethylpentanoic acid] | ≧9.0 |
| CCOC[C@H](C[C@@H](Cc1ccc(-c2cccc(Cl)c2)cc1)NC(=O)c1cc(C(C)=O)[nH]n1)C(=O)O [Example 9-2, (2S,4S)-4-[(5-Acetyl-1H-pyrazole-3-carbonyl)-amino]-5-(3′-chlorobiphenyl-4-yl)-2-ethoxymethylpentanoic acid] | ≧9.0 |
| N[C@@H](C[C@@H](Cc1ccc(-c2cc(Cl)ccc2F)cc1Cl)NC(=O)c1cc(C2CC2)on1)C(=O)O [Example 18-10, (2S,4R)-2-Amino-4-[(5-cyclopropyl-isoxazole-3-carbonyl)-amino]-5-(3,5′-dichloro-2′-fluorobiphenyl-4-yl)pentanoic acid] | ≧9.0 |
| N[C@H](C[C@@H](Cc1ccc(-c2cc(Cl)ccc2F)cc1)NC(=O)c1ncccn1)C(=O)O [Example 16-29, (2R,4R)-2-Amino-5-(5′-chloro-2′-fluorobiphenyl-4-yl)-4-[(pyrimidine-2-carbonyl)-amino]pentanoic acid] | ≧9.0 |
| COC[C@H](C[C@@H](Cc1ccc(-c2cccc(Cl)c2)cc1)NC(=O)c1n[nH]c(C(F)(F)F)n1)C(=O)O [Example 4-1, (2S,4S)-5-(3′-Chlorobiphenyl-4-yl)-2-methoxymethyl-4-[(5-trifluoromethyl-1H-[1,2,4]triazole-3-carbonyl)amino]pentanoic acid] | ≧9.0 |
| CCOc1nc(C(=O)N[C@H](Cc2ccc(-c3cc(Cl)ccc3F)cc2)C[C@@H](NC(=O)OC)C(=O)O)co1 [Example 30-7, (2R,4R)-5-(5′-Chloro-2′-fluorobiphenyl-4-yl)-4-[(2-ethoxy-oxazole-4-carbonyl)amino]-2-methoxycarbonylaminopentanoic acid] | ≧9.0 |

More lines, now with the values ahead:

| pKi | Structure (SMILES) |
| --- | --- |
| ≧9.0 | O=C(N[C@H](Cc1ccc(-c2cc(Cl)ccc2F)cc1)C[C@@H](Cn1ccnc1)C(=O)O)c1cnn[nH]1 [Example 62, (2S,4S)-5-(5′-Chloro-2′-fluorobiphenyl-4-yl)-2-imidazol-1-ylmethyl-4-[(3H-[1,2,3]triazole-4-carbonyl)amino]pentanoic Acid] |
| ≧9.0 | NCC(=O)NC[C@H](C[C@@H](Cc1ccc(-c2cc(Cl)ccc2F)cc1)NC(=O)c1cnn[nH]1)C(=O)O [Example 44-1, (2S,4S)-2-[(2-Aminoacetylamino)methyl]-5-(5′-chloro-2′-fluorobiphenyl-4-yl)-4-[(3H-[1,2,3]triazole-4-carbonyl)amino]pentanoic acid] |
